Experimental data from US20250059172A1, “INDAZOLE COMPOUND AND PHARMACEUTICAL” (NIPPON SHINYAKU CO., LTD., priority 2021, published 2025).

Columns and labels:
human A549 cells = test: Inhibition test of PGE2 production using human A549 cells; format: cell-based; details: IL-1β stimulated A549 cells, 24 h, PGE2 by HTRF, read-out: A549 cell inhibition of PGE2 production IC50
Outline: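 A549 cells were preincubated 60 min with compound in RPMI/3% FBS (0.1% DMSO final), then stimulated with IL-1β (5 ng/well) for 24 h at 37°C. PGE2 was measured by HTRF and PGF2a by EIA; activity was normalized to stimulated minus unstimulated controls, and IC50 derived.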

human mPGES-1 = human mPGES-1 (Homo sapiens (Human), UniProt O14684); test: mPGES-1 inhibitory activity test; format: biochemical; details: for IC50: microsomes of CHO-K1 cells expressing human mPGES-1, PGH2 1 μM, PGE2 by HTRF, read-out: mPGES-1 inhibition (IC50 nM); for inhibition at 0.01 µM: 10 nM test compound; for inhibition at 0.1 µM: 100 nM test compound
human mPGES-1, sequence (O14684 whole entry): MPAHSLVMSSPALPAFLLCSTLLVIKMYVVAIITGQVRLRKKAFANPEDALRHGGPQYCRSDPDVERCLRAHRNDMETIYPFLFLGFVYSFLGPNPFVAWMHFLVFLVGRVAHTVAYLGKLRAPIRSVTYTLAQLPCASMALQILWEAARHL
Outline: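 PGE2 formation was quantified by HTRF and reported as percent inhibition at 10 and 100 nM compound or as IC50. The 60-second reaction at 4° C used 1 μM PGH2, after a 20-minute 4° C preincubation of compound (1% DMSO final) with glutathione-supplemented (2.5 mM, pH 7.4) microsomes. The microsomes were from transiently transfected CHO-K1 cells expressing human mPGES-1.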

| SMILES | IC50 (human A549 cells) | IC50 (human mPGES-1) | inhibition at 0.01 µM (human mPGES-1) | inhibition at 0.1 µM (human mPGES-1) |
| --- | --- | --- | --- | --- |
| O=C(Nc1cccc2c1cnn2-c1ccccc1)c1cc(CNC(=O)C2CC2)ccc1Cl [Example 2, 2-Chloro-5-{[(cyclopropylcarbonyl)amino]methyl}-N-(1-phenyl-1H-indazol-4-yl)benzamide] | 6.3 nM | 0.2 nM |  |  |
| Cc1cncc(-n2ncc3c(NC(=O)c4cc(CNC(=O)C(C)(C)C)ccc4C(F)(F)F)cccc32)c1 [Example 246, 5-{[(2,2-dimethylpropanoyl)amino]methyl}-N-[1-(5-methylpyridin-3-yl)-1H-indazol-4-yl]-2-(trifluoromethyl)benzamide] | 3.5 nM |  | 78% | 89% |
| Cc1cc(-n2ncc3c(NC(=O)c4cc(CNC(=O)C5CCCC5)ccc4Cl)cccc32)ccn1 [Example 235, 2-Chloro-5-{[(cyclopentylcarbonyl)amino]methyl}-N-[1-(2-methylpyridin-4-yl)-1H-indazol-4-yl]benzamide] | 6.1 nM |  | 53% | 88% |
| CC(C)(C)CC(=O)NCc1ccc(Cl)c(C(=O)Nc2cccc3c2cnn3-c2cccc(OC(F)F)c2)c1 [Example 138, 2-Chloro-N-{1-[3-(difluoromethoxy)phenyl]-1H-indazol-4-yl}-5-{[(3,3-dimethylbutanoyl)amino]methyl}benzamide] | 6 nM |  | 61% | 100% |
| COc1cc(-n2ncc3c(NC(=O)c4cc(CNC(=O)CC(C)(C)C)ccc4Cl)cccc32)ccn1 [Example 159, 2-Chloro-5-{[(3,3-dimethylbutanoyl)amino]methyl}-N-[1-(2-methoxypyridin-4-yl)-1H-indazol-4-yl]benzamide] | 9.1 nM |  | 55% | 100% |
| O=C(Nc1cccc2c1cnn2-c1ccc(C(F)(F)F)cc1)c1cc(CNC(=O)[C@H]2CC[C@H](O)CC2)ccc1Cl [Example 39, 2-Chloro-5-({[trans-(4-hydroxycyclohexyl)carbonyl]amino}methyl)-N-{1-[4-(trifluoromethyl)phenyl]-1H-indazol-4-yl}benzamide] | 5.1 nM | 7.5 nM |  |  |
| O=C(Cc1ccccc1)NCc1ccc(Cl)c(C(=O)Nc2cccc3c2cnn3-c2ccc(C(F)(F)F)cc2)c1 [Example 44, 2-Chloro-5-{[(phenylacetyl)amino]methyl}-N-{1-[4-(trifluoromethyl)phenyl]-1H-indazol-4-yl}benzamide] | 151 nM | 7.2 nM |  |  |
| COc1ccc(-n2ncc3c(NC(=O)c4cc(CNC(=O)CC(C)(C)C)ccc4Cl)cccc32)cc1C(F)(F)F [Example 261, 2-Chloro-5-{[(3,3-dimethylbutanoyl)amino]methyl}-N-{1-[4-methoxy-3-(trifluoromethyl)phenyl]-1H-indazol-4-yl}benzamide] | 1.4 nM |  | 95% | 100% |
| Cc1cccc(-n2ncc3c(NC(=O)c4cc(CNC(=O)C5CC5)ccc4Cl)cccc32)c1 [Example 7, 2-Chloro-5-{[(cyclopropylcarbonyl)amino]methyl}-N-[1-(3-methylphenyl)-1H-indazol-4-yl]benzamide] | 1.6 nM | 1.8 nM |  |  |
| Cc1ccc(-n2ncc3c(NC(=O)c4cc(CNS(=O)(=O)C5CC5)ccc4Cl)cccc32)nn1 [Example 253, 2-Chloro-5-{[(cyclopropylsulfonyl)amino]methyl}-N-[1-(6-methylpyridazin-3-yl)-1H-indazol-4-yl]benzamide] | 299 nM |  | 67% | 75% |
| CC(C)(C)C(=O)NCc1ccc(Cl)c(C(=O)Nc2cccc3c2cnn3-c2ccc(C#N)cc2)c1 [Example 55, 2-Chloro-N-[1-(4-cyanophenyl)-1H-indazol-4-yl]-5-([(2,2-dimethylpropanoyl)amino]methyl)benzamide] | 1.8 nM | 1.3 nM |  |  |
